Legend:
Format in all cases: biochemical
AKT = AKT (Homo sapiens, UniProt P31749); assay: RBC HotSpot kinase assay (33P-ATP, P81 filter-binding), AKT; settings: biochemical kinase inhibition; read-out: AKT IC50
How it was run: (§1)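 Substrate in fresh buffer receives cofactors, then kinase, then compound in DMSO for a 20 min room-temperature preincubation. Reactions start with 33P-ATP and run 2 h; phosphorylation is read by P81 filter binding, and IC50 comes from a 10-point curve.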

LATS2 = target: T1, LATS2 (Homo sapiens, UniProt Q9NRM7); assay: RBC HotSpot kinase assay (33P-ATP, P81 filter-binding), LATS2; settings: biochemical kinase inhibition; read-out: LATS2 IC50
T1 sequence (Q9NRM7 1-1088): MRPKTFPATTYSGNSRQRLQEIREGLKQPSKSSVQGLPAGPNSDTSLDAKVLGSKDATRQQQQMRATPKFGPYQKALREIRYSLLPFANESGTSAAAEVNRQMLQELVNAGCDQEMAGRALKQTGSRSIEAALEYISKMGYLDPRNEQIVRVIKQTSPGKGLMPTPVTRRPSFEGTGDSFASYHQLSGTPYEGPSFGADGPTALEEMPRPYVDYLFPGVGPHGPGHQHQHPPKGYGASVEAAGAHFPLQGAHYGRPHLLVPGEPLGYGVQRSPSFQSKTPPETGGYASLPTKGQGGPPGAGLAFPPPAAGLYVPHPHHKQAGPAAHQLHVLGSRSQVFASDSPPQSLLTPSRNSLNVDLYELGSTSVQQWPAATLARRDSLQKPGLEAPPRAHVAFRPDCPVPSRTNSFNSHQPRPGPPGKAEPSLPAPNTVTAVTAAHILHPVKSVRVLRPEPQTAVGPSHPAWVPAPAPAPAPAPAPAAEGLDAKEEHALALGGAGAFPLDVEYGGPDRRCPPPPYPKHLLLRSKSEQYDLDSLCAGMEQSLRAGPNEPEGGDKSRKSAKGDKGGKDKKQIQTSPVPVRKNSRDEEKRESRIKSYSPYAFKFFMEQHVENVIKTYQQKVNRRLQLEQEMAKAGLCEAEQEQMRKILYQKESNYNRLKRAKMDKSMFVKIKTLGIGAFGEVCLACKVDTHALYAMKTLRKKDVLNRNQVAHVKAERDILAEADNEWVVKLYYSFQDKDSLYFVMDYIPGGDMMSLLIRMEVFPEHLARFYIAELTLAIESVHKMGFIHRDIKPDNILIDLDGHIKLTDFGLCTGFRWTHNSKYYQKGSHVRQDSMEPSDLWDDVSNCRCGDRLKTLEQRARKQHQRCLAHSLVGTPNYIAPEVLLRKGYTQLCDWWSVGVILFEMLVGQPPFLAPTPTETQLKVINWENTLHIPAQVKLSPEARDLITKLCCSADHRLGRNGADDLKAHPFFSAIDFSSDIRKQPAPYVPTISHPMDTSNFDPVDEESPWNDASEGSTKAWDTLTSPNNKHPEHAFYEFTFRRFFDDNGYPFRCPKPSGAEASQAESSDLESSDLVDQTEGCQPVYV
How it was run: as §1

LATS1 = target: T2, LATS1 (Homo sapiens, UniProt O95835); assay: RBC HotSpot kinase assay (33P-ATP, P81 filter-binding), LATS1; settings: biochemical kinase inhibition; read-out: LATS1 IC50
T2 sequence (O95835 1-1130): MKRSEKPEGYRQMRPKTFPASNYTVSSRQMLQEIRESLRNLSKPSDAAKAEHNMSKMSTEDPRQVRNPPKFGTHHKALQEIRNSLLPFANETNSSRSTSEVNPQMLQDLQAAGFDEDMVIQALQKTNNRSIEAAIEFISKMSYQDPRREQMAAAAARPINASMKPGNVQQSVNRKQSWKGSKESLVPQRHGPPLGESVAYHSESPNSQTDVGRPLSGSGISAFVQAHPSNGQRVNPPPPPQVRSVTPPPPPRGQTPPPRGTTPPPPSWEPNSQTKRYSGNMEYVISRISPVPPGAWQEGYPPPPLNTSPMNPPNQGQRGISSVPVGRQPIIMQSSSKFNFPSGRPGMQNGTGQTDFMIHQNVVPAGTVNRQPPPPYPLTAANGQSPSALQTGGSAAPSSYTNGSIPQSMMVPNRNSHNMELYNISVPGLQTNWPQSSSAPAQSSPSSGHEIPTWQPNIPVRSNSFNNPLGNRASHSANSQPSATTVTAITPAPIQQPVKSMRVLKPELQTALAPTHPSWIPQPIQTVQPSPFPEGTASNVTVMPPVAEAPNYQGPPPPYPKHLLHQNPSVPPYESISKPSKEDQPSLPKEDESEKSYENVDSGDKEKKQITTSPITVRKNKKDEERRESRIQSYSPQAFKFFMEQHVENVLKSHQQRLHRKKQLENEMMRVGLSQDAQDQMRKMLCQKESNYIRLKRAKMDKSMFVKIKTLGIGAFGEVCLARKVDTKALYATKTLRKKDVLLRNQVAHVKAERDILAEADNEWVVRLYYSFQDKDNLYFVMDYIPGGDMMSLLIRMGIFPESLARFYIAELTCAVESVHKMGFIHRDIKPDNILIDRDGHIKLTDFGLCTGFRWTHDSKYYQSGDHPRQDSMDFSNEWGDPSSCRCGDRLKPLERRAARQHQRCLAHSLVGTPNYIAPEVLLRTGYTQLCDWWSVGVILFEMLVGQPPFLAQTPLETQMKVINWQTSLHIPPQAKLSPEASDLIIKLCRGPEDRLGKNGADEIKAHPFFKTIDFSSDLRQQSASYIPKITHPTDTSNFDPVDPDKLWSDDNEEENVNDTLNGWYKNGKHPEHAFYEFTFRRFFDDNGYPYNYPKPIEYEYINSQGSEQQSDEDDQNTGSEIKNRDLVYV
How it was run: as §1

Chain of AKT (P31749 whole entry): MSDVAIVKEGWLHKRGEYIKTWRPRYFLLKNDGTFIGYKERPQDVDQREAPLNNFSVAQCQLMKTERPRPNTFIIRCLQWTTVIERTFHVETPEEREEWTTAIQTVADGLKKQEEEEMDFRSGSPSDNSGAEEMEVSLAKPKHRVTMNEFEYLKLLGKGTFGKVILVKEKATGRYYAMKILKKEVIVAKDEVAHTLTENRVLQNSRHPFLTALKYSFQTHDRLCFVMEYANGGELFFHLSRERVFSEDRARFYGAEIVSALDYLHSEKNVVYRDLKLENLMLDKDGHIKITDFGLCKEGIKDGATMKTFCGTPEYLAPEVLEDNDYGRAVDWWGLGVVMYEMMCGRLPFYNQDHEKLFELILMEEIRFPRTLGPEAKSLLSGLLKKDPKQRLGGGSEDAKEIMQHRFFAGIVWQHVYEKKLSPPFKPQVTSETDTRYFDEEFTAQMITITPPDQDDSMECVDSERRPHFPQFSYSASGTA

| SMILES | IC50 (AKT) [nM] | IC50 (LATS2) [nM] | IC50 (LATS1) [nM] |
| --- | --- | --- | --- |
| Cc1cc(-c2ccnc3[nH]cc(C#N)c23)cc(F)c1[C@@]1(O)[C@H](C)CN(C(=O)CNCC(F)(F)F)C[C@@H]1C [Compound 2014, 4-(3-fluoro-4-((3S,4s,5R)-4-hydroxy-3,5-dimethyl-1-((2,2,2-trifluoroethyl)glycyl)piperidin-4-yl)-5-methylphenyl)-1H-pyrrolo[2,3-b]pyridine-3-carbonitrile] | 3010 | 6 | 7.1 |
| Cc1cc(-c2ccnc3[nH]cc(C#N)c23)cc(F)c1[C@@]1(O)[C@H](C)CN(C(=O)[C@@H](C)N)C[C@@H]1C [Compound 2015, 4-(4-((3S,4S,5R)-1-(D-alanyl)-4-hydroxy-3,5-dimethylpiperidin-4-yl)-3-fluoro-5-methylphenyl)-1H-pyrrolo[2,3-b]pyridine-3-carbonitrile] | 236 | 2 | 4 |
| Cc1cc(-c2ccnc3[nH]cc(C#N)c23)cc(F)c1[C@@]1(O)[C@H](C)CN(C(=O)C(N)C(F)(F)F)C[C@@H]1C (stereo partly drawn) [Compound 2017, 4-(4-((3S,4s,5R)-1-(2-amino-3,3,3-trifluoropropanoyl)-4-hydroxy-3,5-dimethylpiperidin-4-yl)-3-fluoro-5-methylphenyl)-1H-pyrrolo[2,3-b]pyridine-3-carbonitrile] | 2050 | 6.9 | 8.2 |
| Cc1cc(-c2ccnc3[nH]cc(C#N)c23)cc(F)c1[C@@]1(O)[C@H](C)CN(C(=O)[C@H](CO)N(C)C)C[C@@H]1C [Compound 2023, 4-(4-((3S,4R,5R)-1-(dimethyl-L-seryl)-4-hydroxy-3,5-dimethylpiperidin-4-yl)-3-fluoro-5-methylphenyl)-1H-pyrrolo[2,3-b]pyridine-3-carbonitrile] | 388 | 2.9 | 4.4 |
| Cc1cc(-c2ccnc3[nH]cc(C#N)c23)cc(F)c1[C@@]1(O)[C@H](C)CNC[C@@H]1C [Compound 2024, 4-(3-fluoro-4-((3S,4s,5R)-4-hydroxy-3,5-dimethylpiperidin-4-yl)-5-methylphenyl)-1H-pyrrolo[2,3-b]pyridine-3-carbonitrile] | 334 | 4.2 | 6.6 |

— patent publication US20250361230A1, “LATS Inhibitors and Uses Thereof” (The USA, as Represented by the Secretary, Dept. of Heath …, priority 2022, published 2025)
